From ChEMBL document CHEMBL1137913, “Piperidine-containing beta-arylpropionic acids as potent antagonists of alphavbeta3/alphavbeta5 integrins” (Bioorg Med Chem Lett, 2004)

Legend:
[1] = AUC was determined after peroral administration at 10 mg/kg; format: ADME, organism-based; design: dose 10 mg/kg, route oral; conditions: rat, plasma, po
[2] = Clearance was determined after intravenous administration at 2 mg/kg; format: ADME, organism-based; design: dose 2 mg/kg, route intravenous; conditions: rat, in vivo
[3] = Oral bioavailability (dose in 5% dextrose in water at pH 2); format: ADME, organism-based; conditions: rat, in vivo
[4] = biological target: T1, Integrin alpha-IIb/beta-3 (Homo sapiens, UniProt P05106+P08514); test: Inhibition of human Biotinylated Fg binding to immobilized Alpha II beta-3; format: protein-complex assay
T1 sequence (P05106 27-788 limits assumed): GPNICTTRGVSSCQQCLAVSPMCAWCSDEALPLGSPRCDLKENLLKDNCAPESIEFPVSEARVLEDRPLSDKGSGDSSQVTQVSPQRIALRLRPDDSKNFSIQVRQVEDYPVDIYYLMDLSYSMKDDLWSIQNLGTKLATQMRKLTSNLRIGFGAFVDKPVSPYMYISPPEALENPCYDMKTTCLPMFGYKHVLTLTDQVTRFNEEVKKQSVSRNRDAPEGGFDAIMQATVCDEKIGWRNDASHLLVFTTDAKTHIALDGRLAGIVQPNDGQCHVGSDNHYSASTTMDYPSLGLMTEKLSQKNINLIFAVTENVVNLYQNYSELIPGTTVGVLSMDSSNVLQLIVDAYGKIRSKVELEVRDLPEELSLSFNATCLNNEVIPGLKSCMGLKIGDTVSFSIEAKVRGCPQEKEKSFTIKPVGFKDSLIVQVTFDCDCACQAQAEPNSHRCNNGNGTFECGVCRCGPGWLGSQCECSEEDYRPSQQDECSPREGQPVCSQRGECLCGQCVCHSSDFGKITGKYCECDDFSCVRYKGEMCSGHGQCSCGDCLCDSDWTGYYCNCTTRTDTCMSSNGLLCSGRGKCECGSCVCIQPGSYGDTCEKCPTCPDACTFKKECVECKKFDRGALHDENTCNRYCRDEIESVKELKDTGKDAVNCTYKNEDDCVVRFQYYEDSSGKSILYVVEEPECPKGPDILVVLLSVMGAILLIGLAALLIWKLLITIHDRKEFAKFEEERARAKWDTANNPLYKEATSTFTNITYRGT
T1 sequence (P08514 32-887 limits assumed): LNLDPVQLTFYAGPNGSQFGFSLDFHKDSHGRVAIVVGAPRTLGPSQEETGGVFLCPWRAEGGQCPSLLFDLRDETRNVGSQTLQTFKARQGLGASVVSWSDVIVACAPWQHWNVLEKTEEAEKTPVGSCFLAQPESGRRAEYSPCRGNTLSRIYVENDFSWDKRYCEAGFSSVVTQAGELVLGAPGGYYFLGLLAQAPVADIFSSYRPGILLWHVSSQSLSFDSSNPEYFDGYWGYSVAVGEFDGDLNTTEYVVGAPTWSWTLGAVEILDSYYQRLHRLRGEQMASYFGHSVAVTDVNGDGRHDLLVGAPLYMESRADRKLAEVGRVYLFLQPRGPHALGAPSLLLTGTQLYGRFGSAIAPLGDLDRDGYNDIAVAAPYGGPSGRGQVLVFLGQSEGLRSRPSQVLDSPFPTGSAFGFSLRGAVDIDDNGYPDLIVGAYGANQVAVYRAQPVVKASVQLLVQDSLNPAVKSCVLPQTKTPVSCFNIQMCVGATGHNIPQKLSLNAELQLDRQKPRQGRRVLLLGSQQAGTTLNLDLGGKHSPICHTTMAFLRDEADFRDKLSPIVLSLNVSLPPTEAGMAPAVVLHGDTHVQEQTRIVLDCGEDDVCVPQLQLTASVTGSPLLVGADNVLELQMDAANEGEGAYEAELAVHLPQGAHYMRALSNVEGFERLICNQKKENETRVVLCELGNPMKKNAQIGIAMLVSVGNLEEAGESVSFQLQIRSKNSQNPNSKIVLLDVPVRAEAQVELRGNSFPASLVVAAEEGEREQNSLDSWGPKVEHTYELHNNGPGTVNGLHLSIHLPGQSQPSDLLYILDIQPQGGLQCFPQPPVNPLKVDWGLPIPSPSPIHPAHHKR
T1 sequence (P08514 891-1039 limits assumed): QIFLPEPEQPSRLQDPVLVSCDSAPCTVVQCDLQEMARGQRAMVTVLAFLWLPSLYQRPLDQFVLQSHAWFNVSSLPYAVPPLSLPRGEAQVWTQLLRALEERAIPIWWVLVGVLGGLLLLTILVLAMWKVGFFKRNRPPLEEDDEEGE

[5] = Half life was determined after peroral administration at 10 mg/kg; format: ADME, organism-based; design: dose 10 mg/kg, route oral; conditions: rat, in vivo, po
Integrin alpha-V/beta-3 = Integrin alpha-V/beta-3 (Homo sapiens, UniProt P05106+P06756); test: Inhibition of human vitronectin binding to immobilized Alpha v beta-3; format: protein-complex assay
Sequence of Integrin alpha-V/beta-3 (P05106 27-788 limits assumed): as the sequence (P05106 27-788 limits assumed) above
Sequence of Integrin alpha-V/beta-3 (P06756 31-889 limits assumed): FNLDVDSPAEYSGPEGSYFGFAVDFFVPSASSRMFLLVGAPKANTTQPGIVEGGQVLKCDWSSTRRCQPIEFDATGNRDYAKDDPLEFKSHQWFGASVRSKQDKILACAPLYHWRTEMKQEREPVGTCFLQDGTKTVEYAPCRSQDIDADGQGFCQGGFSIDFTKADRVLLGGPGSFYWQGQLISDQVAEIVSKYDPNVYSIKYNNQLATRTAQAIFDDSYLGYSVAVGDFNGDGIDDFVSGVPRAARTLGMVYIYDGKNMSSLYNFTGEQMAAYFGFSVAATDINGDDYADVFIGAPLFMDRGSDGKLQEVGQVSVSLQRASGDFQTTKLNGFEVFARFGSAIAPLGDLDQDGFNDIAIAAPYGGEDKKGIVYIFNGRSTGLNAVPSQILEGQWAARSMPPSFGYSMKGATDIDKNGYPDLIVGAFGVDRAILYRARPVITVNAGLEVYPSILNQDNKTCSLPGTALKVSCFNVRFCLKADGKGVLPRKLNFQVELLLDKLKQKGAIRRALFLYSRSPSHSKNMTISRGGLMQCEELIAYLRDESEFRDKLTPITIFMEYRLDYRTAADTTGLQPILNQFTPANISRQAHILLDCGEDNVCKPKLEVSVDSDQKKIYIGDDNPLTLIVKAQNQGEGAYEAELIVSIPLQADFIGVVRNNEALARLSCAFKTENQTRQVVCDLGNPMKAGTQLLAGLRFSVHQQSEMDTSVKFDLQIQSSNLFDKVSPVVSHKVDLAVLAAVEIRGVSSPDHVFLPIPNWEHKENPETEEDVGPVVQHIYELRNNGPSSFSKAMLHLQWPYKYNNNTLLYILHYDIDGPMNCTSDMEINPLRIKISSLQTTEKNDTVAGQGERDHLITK
Sequence of Integrin alpha-V/beta-3 (P06756 891-1048 limits assumed): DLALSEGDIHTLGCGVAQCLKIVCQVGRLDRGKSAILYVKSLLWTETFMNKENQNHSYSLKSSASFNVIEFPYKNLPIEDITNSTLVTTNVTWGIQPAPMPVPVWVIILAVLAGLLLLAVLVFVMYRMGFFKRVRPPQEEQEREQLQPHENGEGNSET

[6] = Inhibition of human Biotinylated Fg binding to immobilized Alpha II biotinylated Fg beta-5
[7] = biological target: T1, Integrin alpha-IIb/beta-3; test: Inhibition of human Biotinylated Fg binding to immobilized Alpha IIb beta-3 (N=1); format: protein-complex assay

Row | AUC [1] | CI [2] | bioavailability [3] | IC50 [4] | half-life [5] | IC50 (Integrin alpha-V/beta-3) | IC50 [6] | IC50 [7] | Structure (SMILES)
1 | 304 µM·h | 0.09 mg/kg/µM/h | 88% | 4.36 µM | 3 h | – | – | – | O=C(O)CC(CCC1CCN(C(=O)CCc2ccc3c(n2)NCCC3)CC1)c1ccc2c(c1)OCO2 (stereo unspecified)
2 | 286 µM·h | 0.02 mg/kg/µM/h | 47% | > 10 µM | 5.65 h | – | 0.0245 µM | – | O=C(O)CC(CC1CCN(C(=O)CCc2ccc3c(n2)NCCC3)CC1)c1ccc2ccccc2c1 (stereo unspecified)
3 | – | – | – | 4.26 µM | – | 0.0206 µM | 0.22 µM | – | O=C(O)CC(CC1CCN(C(=O)CCCc2ccc3c(n2)NCCC3)CC1)c1ccc2c(c1)OCO2 (stereo unspecified)
4 | 79 µM·h | 0.09 mg/kg/µM/h | 2.4% | 15.7 µM | 6.7 h | 0.0217 µM | – | – | O=C(O)CC(NC(=O)C1CCN(C(=O)CCc2ccc3c(n2)NCCC3)CC1)c1ccc2c(c1)OCO2 (stereo unspecified)
5 | – | 1.1 mg/kg/µM/h | 0% | – | – | – | 0.0017 µM | – | O=C(O)CC(CC1CCN(C(=O)CCc2ccc3c(n2)NCCC3)CC1)c1cccnc1 (stereo unspecified)
6 | – | – | – | 6.19 µM | – | 0.0281 µM | 0.0957 µM | – | O=C(O)CC(c1ccc2c(c1)OCO2)C1CCN(C(=O)CCc2ccc3c(n2)NCCC3)CC1 (stereo unspecified)
7 | < 0.1 µM·h | 10.4 mg/kg/µM/h | 4% | – | 2.6 h | – | – | – | Cc1ncc(C(CC(=O)O)CC2CCN(C(=O)CCc3ccc4c(n3)NCCC4)CC2)cn1 (stereo unspecified)
8 | 97 µM·h | 0.1 mg/kg/µM/h | 31% | – | 2.1 h | – | 0.0023 µM | – | O=C(O)CC(CC1CCN(C(=O)CCc2ccc3c(n2)NCCC3)CC1)c1ccc2c(c1)OCO2 (stereo unspecified)
9 | – | – | – | > 10 µM | – | 0.075 µM | 0.405 µM | – | O=C(O)CC(CCC1CCN(C(=O)Cc2ccc3c(n2)NCCC3)CC1)c1ccc2c(c1)OCO2 (stereo unspecified)
10 | – | – | – | – | – | – | 0.0335 µM | – | O=C(O)CC(c1ccc2c(c1)OCO2)C1CCN(C(=O)CCCc2ccc3c(n2)NCCC3)CC1 (stereo unspecified)
11 | – | – | – | – | – | – | 0.775 µM | > 10 µM | O=C(O)CC(c1ccc2c(c1)OCO2)C1CCN(C(=O)Cc2ccc3c(n2)NCCC3)CC1 (stereo unspecified)
12 | 2.7 µM·h | 0.5 mg/kg/µM/h | 14% | > 10 µM | 1.7 h | – | 0.0028 µM | – | O=C(O)CC(CC1CCN(C(=O)CCc2ccc3c(n2)NCCC3)CC1)c1cccc(F)c1 (stereo unspecified)

More lines, now with the values behind:

Row | Structure (SMILES) | AUC [1] | CI [2] | bioavailability [3] | IC50 [4] | half-life [5] | IC50 (Integrin alpha-V/beta-3) | IC50 [6] | IC50 [7]
13 | O=C(O)CC(NC(=O)C1CCN(C(=O)CCCNC2=NCCN2)CC1)c1cnc2ccccc2c1 (stereo unspecified) | – | – | – | 0.0793 µM | – | 0.0028 µM | – | –
14 | O=C(O)CC(CCC1CCN(C(=O)CCCNc2ccccn2)CC1)c1ccc2c(c1)OCO2 (stereo unspecified) | 142 µM·h | 0.2 mg/kg/µM/h | 96% | 10.9 µM | 6.6 h | 0.233 µM | – | –
15 | N/C(=N\Cc1ccncc1)Nc1cccc(C(=O)N2CCC(C(=O)NC(CC(=O)O)c3ccc4c(c3)OCO4)CC2)c1 (stereo unspecified) | – | – | – | 0.0564 µM | – | 0.0253 µM | – | –
16 | O=C(O)C[C@H](NC(=O)[C@@H]1CCCN(C(=O)CCC2CCNCC2)C1)c1cccnc1 [ELAROFIBAN] | – | – | – | 0.00015 µM | – | > 50 µM | – | –
17 | O=C(O)CC(NC(=O)C1CCN(C(=O)c2cccc(NC3=CCCCN3)c2)CC1)c1ccc2c(c1)OCO2 (stereo unspecified) | – | – | – | 0.209 µM | – | 0.0104 µM | – | –
18 | O=C(O)CC(CCC1CCN(C(=O)c2cccc(NC3=NCC(O)CN3)c2)CC1)c1ccc2c(c1)OCO2 (stereo unspecified) | 21.2 µM·h | 0.04 mg/kg/µM/h | 2.6% | 1.58 µM | 5.4 h | 0.0017 µM | – | –
19 | O=C(O)CC(NC(=O)C1CCN(C(=O)c2cccc(NC3=CCC(O)CN3)c2)CC1)c1cnc2ccccc2c1 (stereo unspecified) | – | – | – | 0.177 µM | – | 0.0055 µM | – | –
20 | COc1ncc(C(CC(=O)O)CC2CCN(C(=O)CCc3ccc4c(n3)NCCC4)CC2)c(OC)n1 (stereo unspecified) | 0.1 µM·h | 1 mg/kg/µM/h | 1% | – | – | 0.0015 µM | 0.0046 µM | –
21 | O=C(O)CC(NC(=O)C1CCN(C(=O)CCc2ccc3c(n2)NCCC3)CC1)c1cnc2ccccc2c1 (stereo unspecified) | – | – | – | 2.85 µM | – | 0.0026 µM | – | –
